From ChEMBL document CHEMBL1201862, “PubChem BioAssay data set” (2004)
The source made the active and inactive calls.

Legend:
[1] = target: T1, Voltage-gated N-type calcium channel alpha-1B subunit/Amyloid beta A4 precursor protein-binding family A member 1 (Homo sapiens, UniProt Q00975+Q02410); assay type: protein assay
[2] = target: T1, Voltage-gated N-type calcium channel alpha-1B subunit/Amyloid beta A4 precursor protein-binding family A member 1; assay type: protein assay; remark: listed apart in the source
[3] = target: T2, Replicative DNA helicase DnaB (Mycobacterium tuberculosis, UniProt P9WMR3); assay: DnaB intein splicing inhibitors, dose response, biochemical, cell-free fluorescence (AID 449749); assay type: functional
T2 sequence (P9WMR3 whole entry): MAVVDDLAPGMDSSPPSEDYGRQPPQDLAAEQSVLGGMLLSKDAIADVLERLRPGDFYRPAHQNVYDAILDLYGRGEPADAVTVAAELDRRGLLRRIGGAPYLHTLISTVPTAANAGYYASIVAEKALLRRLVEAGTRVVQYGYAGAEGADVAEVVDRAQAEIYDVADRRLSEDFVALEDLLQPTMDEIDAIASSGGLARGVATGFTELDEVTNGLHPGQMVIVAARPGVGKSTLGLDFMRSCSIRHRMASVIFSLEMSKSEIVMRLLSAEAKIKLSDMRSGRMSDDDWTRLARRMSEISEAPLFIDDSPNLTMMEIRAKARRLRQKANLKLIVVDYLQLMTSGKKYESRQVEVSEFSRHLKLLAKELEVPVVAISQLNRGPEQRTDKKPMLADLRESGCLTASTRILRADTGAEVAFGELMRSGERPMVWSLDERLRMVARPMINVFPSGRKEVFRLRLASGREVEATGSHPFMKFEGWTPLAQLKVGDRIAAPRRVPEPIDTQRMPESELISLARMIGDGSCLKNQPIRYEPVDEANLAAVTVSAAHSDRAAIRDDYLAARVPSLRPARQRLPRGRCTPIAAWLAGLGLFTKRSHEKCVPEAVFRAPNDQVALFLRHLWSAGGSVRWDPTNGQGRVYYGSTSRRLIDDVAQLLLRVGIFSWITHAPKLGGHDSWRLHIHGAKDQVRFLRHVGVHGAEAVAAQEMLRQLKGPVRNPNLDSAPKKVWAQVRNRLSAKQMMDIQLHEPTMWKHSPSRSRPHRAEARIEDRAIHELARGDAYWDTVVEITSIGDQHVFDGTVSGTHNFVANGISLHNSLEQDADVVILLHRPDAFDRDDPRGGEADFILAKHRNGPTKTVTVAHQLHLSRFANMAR

Protein RecA = target: T3, Protein RecA (Mycobacterium tuberculosis, UniProt P9WHJ3); assay: Fluorescence Cell-Free Homogeneous Dose Retest to Identify Inhibitors of RecA-Intein Splicing Activity. [Related pubchem assays (depositor defined):AID2097, AID2223, AID489010, AID492950]; assay type: functional
T3 sequence (P9WHJ3 whole entry): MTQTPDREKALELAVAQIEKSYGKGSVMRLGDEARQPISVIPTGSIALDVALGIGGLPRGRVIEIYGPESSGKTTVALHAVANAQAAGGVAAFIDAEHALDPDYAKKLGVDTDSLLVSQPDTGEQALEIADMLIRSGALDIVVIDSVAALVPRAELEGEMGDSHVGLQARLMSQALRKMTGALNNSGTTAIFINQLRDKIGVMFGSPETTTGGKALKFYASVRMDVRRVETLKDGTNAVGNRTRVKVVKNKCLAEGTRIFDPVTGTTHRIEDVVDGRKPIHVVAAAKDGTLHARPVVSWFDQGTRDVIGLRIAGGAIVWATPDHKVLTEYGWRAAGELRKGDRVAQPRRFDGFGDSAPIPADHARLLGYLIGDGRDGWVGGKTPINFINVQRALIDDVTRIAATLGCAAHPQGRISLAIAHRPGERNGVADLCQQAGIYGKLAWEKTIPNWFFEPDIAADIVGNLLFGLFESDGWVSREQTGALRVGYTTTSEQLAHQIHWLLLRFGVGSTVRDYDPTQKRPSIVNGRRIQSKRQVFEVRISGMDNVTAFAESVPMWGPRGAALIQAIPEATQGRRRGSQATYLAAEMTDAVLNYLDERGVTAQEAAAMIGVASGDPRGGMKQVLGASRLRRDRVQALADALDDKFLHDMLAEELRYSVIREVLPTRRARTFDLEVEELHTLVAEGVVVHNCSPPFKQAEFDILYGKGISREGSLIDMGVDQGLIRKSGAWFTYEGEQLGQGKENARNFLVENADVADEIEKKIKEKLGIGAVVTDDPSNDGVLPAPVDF

[4] = target: G-protein coupled receptor 55 (Homo sapiens, UniProt Q9Y2T6); assay: blockers of GPR55 signalling, imaged – imaging, image-based, counter-screen for GPR35 antagonist project, SAR follow-up (AID 2397); assay type: functional
[5] = viability of uninfected HEp-2 cells – cell-based, HTS, cytotoxicity control for RSV inhibitor project, dose response (AID 2410); assay type: functional; conditions: human respiratory syncytial virus
[6] = target: T4, Ubiquitin-conjugating enzyme E2 N (Homo sapiens, UniProt P61088); assay type: functional
T4 sequence (P61088 whole entry): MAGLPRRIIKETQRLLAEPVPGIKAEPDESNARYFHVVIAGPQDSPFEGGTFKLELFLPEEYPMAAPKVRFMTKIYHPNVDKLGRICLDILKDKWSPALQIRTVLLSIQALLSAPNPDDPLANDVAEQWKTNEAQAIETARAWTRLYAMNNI

[7] = target: T4, Ubiquitin-conjugating enzyme E2 N; assay type: functional; remark: listed apart in the source
Bcl-2-related protein A1 = target: T5, Bcl-2-related protein A1 (Mus musculus, UniProt Q07440); assay type: functional;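 also: confirmatory dose–response counterscreen on Bfl-1, used to check hits from a UBC13 polyubiquitin inhibitor campaign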
T5 sequence (Q07440 whole entry): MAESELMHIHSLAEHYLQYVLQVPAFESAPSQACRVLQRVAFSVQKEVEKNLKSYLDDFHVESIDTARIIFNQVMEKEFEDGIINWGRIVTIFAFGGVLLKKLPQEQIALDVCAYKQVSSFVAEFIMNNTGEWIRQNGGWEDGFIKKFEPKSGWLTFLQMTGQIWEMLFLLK

Phosphomannomutase 2 = target: T6, Phosphomannomutase 2 (Homo sapiens, UniProt O15305); assay: Counter screen SAR assay for PMM2 inhibitors via a fluorescence intensity assay. [Related pubchem assays (depositor defined):AID1545, AID1574]
T6 sequence (O15305 whole entry): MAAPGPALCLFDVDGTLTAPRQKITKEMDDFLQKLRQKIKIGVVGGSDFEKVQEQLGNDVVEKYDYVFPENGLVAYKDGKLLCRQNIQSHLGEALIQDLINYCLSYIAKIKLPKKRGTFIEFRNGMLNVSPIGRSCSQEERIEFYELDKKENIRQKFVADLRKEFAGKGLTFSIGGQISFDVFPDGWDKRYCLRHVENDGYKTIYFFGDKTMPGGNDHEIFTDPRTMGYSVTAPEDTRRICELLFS

[8] = target: T7, Mannose-6-phosphate isomerase (Homo sapiens, UniProt P34949); assay: phosphomannose isomerase inhibition – biochemical, fluorescence intensity, confirmation (AID 1535)
T7 sequence (P34949 whole entry): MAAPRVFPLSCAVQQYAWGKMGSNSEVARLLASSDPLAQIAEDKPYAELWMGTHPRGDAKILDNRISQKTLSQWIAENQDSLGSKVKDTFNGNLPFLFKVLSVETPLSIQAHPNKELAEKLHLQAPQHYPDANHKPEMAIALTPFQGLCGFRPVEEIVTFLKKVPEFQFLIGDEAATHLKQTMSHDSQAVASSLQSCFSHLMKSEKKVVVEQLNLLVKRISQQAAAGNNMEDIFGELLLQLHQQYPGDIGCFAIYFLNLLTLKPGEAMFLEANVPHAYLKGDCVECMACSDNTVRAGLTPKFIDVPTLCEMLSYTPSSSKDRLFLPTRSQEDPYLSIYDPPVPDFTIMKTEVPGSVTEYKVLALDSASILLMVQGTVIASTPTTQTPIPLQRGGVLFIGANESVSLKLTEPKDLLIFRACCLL

Cytochrome P450 2C9 = Cytochrome P450 2C9 (Homo sapiens, UniProt P11712)
Chain of Cytochrome P450 2C9 (P11712 whole entry): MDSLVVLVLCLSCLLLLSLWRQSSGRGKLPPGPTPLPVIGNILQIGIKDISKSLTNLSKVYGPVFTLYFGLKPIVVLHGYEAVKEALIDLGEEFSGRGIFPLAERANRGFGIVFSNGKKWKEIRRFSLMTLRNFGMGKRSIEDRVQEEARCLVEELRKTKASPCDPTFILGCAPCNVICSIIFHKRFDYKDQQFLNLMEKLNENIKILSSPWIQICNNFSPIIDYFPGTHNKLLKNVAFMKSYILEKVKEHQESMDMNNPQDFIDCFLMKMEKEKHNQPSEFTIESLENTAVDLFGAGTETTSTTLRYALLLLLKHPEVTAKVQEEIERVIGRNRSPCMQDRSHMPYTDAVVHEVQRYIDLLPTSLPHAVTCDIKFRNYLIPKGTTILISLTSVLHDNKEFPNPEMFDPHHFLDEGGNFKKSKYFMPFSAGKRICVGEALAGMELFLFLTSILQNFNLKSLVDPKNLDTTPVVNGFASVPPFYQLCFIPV

Cytochrome P450 2D6 = Cytochrome P450 2D6 (Homo sapiens, UniProt P10635);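 also: CYP2D6 member of a cytochrome P450 panel assay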
Chain of Cytochrome P450 2D6 (P10635 whole entry): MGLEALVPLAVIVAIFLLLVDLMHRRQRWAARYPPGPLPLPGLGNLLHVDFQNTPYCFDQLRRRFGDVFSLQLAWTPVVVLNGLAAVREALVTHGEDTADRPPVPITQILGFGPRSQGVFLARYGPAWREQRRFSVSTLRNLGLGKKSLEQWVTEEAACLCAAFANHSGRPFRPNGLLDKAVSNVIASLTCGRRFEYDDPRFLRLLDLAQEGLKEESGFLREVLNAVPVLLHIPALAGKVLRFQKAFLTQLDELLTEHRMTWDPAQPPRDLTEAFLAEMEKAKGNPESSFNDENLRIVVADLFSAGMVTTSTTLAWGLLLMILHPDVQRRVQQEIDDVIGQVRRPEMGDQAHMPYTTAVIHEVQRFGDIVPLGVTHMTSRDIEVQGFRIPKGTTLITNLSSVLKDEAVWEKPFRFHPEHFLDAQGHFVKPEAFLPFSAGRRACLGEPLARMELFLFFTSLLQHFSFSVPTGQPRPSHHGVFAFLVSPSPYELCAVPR

Cytochrome P450 1A2 = target: T8, Cytochrome P450 1A2 (Homo sapiens, UniProt P05177);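 also: PubChem cytochrome P450 panel assay, CYP1A2 panel member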
T8 sequence (P05177 whole entry): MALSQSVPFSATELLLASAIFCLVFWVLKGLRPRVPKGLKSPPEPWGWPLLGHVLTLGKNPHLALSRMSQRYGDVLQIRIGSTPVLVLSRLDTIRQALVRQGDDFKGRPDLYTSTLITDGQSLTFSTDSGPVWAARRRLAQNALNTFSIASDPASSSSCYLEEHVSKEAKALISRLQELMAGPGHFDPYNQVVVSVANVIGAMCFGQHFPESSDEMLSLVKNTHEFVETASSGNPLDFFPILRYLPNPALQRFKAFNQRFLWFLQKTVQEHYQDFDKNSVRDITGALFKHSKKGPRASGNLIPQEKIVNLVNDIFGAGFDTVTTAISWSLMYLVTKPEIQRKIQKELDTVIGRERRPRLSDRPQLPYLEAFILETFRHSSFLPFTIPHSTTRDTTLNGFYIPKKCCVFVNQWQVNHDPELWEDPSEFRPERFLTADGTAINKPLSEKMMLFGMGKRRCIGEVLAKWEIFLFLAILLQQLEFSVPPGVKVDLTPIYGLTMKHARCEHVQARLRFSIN

[9] = target: DNA dC->dU-editing enzyme APOBEC-3G (Homo sapiens, UniProt Q9HC16); assay: Dose Response confirmation of small molecule APOBEC3G DNA Deaminase Inhibitors via a fluorescence-based single-stranded DNA deaminase assay. [Related pubchem assays (depositor defined):AID493012, AID493028]; assay type: functional
Chain of DNA dC->dU-editing enzyme APOBEC-3G (Q9HC16 whole entry): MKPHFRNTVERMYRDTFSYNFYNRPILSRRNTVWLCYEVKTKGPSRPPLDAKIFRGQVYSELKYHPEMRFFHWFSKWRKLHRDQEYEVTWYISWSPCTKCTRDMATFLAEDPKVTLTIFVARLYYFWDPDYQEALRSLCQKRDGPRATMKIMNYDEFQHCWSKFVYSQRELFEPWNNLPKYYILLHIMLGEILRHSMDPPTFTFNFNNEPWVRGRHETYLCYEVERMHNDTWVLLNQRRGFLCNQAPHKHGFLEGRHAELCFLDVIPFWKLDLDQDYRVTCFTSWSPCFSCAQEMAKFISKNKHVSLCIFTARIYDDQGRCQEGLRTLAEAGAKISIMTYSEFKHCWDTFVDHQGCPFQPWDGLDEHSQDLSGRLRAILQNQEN

Leucine aminopeptidase = target: T9, Leucine aminopeptidase (Plasmodium falciparum 3D7, UniProt Q8IL11); assay: P. falciparum M17LAP inhibitors, primary screen, biochemical, fluorogenic H-Leu-NHMec substrate, 1536-well (AID 1619); assay type: functional
T9 sequence (Q8IL11 whole entry): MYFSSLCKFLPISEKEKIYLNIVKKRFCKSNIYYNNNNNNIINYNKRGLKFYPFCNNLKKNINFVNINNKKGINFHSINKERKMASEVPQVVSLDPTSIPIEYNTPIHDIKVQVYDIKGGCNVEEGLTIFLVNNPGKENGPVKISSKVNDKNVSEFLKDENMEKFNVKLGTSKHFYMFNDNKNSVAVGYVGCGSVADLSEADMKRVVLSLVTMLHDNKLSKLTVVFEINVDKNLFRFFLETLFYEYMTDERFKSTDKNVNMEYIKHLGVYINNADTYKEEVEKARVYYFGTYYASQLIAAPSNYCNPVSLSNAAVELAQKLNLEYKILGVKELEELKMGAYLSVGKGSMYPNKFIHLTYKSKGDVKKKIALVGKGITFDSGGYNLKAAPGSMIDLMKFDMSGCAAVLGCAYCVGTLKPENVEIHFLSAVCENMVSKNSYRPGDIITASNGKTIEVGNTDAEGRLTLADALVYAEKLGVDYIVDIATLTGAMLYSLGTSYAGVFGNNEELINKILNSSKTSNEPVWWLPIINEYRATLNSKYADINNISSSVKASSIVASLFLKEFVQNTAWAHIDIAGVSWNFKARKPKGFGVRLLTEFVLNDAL

[10] = target: DNA dC->dU-editing enzyme APOBEC-3A (Homo sapiens, UniProt P31941); assay: A3A deaminase inhibition for selectivity – biochemical, dose response (AID 504722); assay type: functional
[11] = target: E3 ubiquitin-protein ligase XIAP (Homo sapiens, UniProt P98170); assay: Counter Screen using XIAP-Bir3 for Chemical Antagonists of Bir1/2 domains of IAP-family anti-apoptotic proteins. [Related pubchem assays (depositor defined):AID1018, AID1449, AID1514, AID1638, AID1749, AID1750, AID488957, AID488963]
Chain of E3 ubiquitin-protein ligase XIAP (P98170 whole entry): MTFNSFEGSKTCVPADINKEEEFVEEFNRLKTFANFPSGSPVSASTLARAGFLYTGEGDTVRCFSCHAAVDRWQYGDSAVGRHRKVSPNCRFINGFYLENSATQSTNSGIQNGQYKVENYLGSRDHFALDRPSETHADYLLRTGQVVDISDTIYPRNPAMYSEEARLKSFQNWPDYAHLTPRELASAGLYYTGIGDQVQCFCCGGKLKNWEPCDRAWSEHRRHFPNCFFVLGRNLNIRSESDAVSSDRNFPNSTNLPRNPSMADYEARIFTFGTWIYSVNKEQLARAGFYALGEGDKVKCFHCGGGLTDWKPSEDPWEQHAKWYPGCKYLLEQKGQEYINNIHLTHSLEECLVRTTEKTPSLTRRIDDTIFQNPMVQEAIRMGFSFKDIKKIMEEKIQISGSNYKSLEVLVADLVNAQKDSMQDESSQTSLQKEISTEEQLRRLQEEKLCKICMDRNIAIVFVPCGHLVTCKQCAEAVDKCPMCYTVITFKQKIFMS

Cytochrome P450 2C19 = Cytochrome P450 2C19 (Homo sapiens, UniProt P33261); assay: Cytochrome panel assay with activity outcomes. Panel member name: p450-cyp2c19 Compounds with AC50 equal or less than 10 uM are considered active; assay type: functional; conditions: read-out: AC50

T1 sequence (Q00975 whole entry): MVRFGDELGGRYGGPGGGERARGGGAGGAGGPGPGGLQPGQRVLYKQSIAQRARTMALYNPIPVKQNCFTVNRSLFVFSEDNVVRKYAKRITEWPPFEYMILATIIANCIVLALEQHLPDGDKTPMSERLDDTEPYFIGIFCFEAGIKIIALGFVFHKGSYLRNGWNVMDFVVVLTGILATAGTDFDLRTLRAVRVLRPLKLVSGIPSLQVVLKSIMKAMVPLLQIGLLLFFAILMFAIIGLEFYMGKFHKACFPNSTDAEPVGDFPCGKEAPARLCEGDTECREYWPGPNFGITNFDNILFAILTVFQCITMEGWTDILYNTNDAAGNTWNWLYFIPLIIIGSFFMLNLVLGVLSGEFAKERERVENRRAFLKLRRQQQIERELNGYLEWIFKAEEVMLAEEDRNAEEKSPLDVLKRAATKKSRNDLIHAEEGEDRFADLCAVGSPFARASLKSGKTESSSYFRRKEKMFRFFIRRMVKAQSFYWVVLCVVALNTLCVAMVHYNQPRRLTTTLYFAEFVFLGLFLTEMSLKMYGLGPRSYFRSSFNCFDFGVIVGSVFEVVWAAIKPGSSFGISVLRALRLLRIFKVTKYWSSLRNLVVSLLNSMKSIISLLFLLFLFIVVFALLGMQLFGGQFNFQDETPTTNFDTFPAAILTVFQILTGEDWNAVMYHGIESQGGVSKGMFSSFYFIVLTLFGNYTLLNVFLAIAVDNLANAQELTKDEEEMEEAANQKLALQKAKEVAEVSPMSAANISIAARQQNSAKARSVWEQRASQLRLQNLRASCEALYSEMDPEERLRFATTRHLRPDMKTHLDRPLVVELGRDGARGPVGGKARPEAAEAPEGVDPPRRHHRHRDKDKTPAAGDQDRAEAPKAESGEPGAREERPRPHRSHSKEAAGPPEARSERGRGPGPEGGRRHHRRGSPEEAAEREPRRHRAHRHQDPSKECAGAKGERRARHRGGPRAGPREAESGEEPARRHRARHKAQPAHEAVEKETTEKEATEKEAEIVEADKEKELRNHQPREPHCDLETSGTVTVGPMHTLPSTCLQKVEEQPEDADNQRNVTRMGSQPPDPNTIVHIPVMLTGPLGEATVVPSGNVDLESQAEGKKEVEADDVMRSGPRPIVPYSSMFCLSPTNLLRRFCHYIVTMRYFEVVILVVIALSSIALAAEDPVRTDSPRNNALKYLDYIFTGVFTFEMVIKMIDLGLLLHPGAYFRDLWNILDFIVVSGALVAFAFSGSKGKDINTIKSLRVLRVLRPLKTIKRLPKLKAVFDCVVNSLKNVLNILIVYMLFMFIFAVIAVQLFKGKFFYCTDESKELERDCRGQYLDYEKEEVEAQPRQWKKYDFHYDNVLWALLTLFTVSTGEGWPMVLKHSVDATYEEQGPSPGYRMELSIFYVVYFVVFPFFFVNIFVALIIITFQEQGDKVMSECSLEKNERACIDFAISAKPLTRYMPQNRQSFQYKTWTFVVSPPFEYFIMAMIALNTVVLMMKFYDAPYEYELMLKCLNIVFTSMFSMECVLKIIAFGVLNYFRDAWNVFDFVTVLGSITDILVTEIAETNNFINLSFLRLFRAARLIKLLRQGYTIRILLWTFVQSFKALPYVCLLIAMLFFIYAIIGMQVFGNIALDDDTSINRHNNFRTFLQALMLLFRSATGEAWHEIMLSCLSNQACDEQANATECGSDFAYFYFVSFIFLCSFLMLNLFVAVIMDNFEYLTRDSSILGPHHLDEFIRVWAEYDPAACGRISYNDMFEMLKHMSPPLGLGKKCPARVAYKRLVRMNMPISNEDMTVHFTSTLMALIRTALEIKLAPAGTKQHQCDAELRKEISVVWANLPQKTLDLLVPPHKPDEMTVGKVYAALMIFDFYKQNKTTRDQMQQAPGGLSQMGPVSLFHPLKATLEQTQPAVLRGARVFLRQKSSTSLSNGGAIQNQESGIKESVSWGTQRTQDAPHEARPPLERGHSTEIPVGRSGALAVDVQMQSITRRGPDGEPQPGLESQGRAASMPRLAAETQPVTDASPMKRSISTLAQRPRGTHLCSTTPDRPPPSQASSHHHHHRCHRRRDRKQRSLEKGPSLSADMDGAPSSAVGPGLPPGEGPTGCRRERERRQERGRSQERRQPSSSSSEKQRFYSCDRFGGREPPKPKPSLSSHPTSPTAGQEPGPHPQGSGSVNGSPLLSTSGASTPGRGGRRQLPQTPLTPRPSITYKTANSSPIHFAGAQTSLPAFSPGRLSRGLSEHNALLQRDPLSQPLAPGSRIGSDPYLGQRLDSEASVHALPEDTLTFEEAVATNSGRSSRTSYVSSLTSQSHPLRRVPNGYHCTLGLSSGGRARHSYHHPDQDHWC
T1 sequence (Q02410 whole entry): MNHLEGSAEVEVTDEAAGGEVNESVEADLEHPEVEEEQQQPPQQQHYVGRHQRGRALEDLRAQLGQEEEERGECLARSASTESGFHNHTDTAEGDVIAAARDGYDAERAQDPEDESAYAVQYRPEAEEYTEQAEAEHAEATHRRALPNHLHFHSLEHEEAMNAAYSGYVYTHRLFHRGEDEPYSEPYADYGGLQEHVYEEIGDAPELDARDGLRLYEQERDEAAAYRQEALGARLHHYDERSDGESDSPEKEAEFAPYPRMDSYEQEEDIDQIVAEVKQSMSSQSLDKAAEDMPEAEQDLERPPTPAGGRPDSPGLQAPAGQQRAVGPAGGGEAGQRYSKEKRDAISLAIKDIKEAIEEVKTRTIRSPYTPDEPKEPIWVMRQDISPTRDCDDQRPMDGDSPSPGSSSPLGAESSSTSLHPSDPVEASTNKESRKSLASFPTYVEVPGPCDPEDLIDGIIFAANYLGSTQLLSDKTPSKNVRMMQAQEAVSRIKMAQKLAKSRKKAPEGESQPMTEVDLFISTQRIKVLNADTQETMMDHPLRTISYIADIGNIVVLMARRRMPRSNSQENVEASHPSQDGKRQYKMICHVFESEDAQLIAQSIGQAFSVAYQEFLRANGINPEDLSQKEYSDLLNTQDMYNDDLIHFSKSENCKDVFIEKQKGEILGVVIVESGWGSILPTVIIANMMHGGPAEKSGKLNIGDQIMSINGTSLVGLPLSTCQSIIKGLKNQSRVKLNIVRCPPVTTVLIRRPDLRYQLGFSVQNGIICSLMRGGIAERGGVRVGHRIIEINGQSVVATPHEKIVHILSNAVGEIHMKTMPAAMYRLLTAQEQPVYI

With `CN(CCOC(=O)/C=C/c1ccco1)Cc1ccccc1` the IC50 [1] was 18.5 µM (active) and the IC50 [2] was 29.1 µM (active).

In the case of `O=C(CCCN1C(=O)/C(=C\c2cccs2)SC1=S)Nc1ccc(O)cc1`, the AC50 [3] is reported as 2.19 µM (active), the EC50 (Protein RecA) is reported as 5.95 µM (active) and the IC50 [4] is reported as 29.5 µM (inactive). For the same compound, the CC50 [5] was 12.5 µM (active).

For `CCN1C(=O)c2cccc3c(NC(=O)c4ccc(S(=O)(=O)N5CCOCC5)cc4)ccc1c23`, the IC50 [6] was 10.4 µM (active), the IC50 [7] was 9.74 µM (active) and the IC50 (Bcl-2-related protein A1) was > 20 µM (inactive).

With `Cc1ccc(NP(=O)(c2ccccc2)c2nc3ccccc3s2)cc1` (stereo not drawn) the IC50 (Phosphomannomutase 2) was > 100 µM (inactive) and the IC50 [8] was > 50 µM (inactive).

With `CC(C)NC(=O)C1CC(=O)N(c2ccc(F)c(Cl)c2)C1` (stereo not drawn) the AC50 (Cytochrome P450 2C9) was “inconclusive”, the AC50 (Cytochrome P450 2D6) was 14.1 µM (inconclusive) and the AC50 (Cytochrome P450 1A2) was 2 µM (inconclusive).

For `CCOc1ccc(N2C(=O)CC(Sc3n[nH]c(-c4ccccc4)n3)C2=O)cc1` (stereo not drawn), the IC50 [9] was 14 µM (active), the IC50 (Leucine aminopeptidase) was 11.1 µM (active) and the IC50 [10] was > 100 µM (inactive).

With `CCC(=O)NC(=S)NNC(=O)c1ccc(O)cc1` the IC50 [6] was 12.2 µM (active), the IC50 [7] was 8.9 µM (active) and the IC50 (Bcl-2-related protein A1) was > 20 µM (inactive).

With `O=c1[nH]n(-c2ccc([N+](=O)[O-])cc2)c(=O)c2ccccc12` the IC50 [11] was > 20 µM (inactive).

In the case of `COc1ccc(NC(=O)c2ccc(C)cc2Cl)c([N+](=O)[O-])c1`, the AC50 (Cytochrome P450 2C9) is reported as “inconclusive” and the AC50 (Cytochrome P450 2C19) is reported as 3.55 µM (inconclusive).
